Data taken from patent publication US20050186135A1, “Compositions, methods, apparatuses, and systems for singlet oxygen delivery” (priority 2001, published 2005).

Tests used:
atherosclerosis = conditions: in vivo; cited from earlier work
tumor growth = conditions: mice, Altermatt et al. 1990; cited from earlier work
mitosis = conditions: Lamprecht et al. 1990; cited from earlier work
[1] = in vivo; cited from earlier work
[2] = Ameta et al. 1990; Parker and Stanbro 1984; cited from earlier work
influenzal pneumonia = conditions: intravenous hydrogen peroxide solution, Oliver 1920; cited from earlier work
[3] = stated as believed; cited from earlier work
a single cell = conditions: Oseroff et al. 1986; cited from earlier work
[4] = tested on: coronary artery blocked with sclerotic plaque; assay: Treatment of Sclerotic Plaque I: cadaver artery section in test tube; set-up: species or system human; conditions: 2 ml of 6% sodium hypochlorite, shaken one minute
Description: A coronary artery blocked with sclerotic plaque, taken from a human cadaver, was chosen as a target site for treatment. The coronary artery was grayish pink in color and suspended in a formaldehyde preservative. It was surrounded with fatty tissue of an irregular shape, which measured approximately 1 cm in its widest dimension. It measured 0.6 cm in length and 0.5 cm diameter. The lumen of the vessel was completed occluded with sclerotic plaque.
The cross section of coronary artery was placed in a test tube containing 2 ml of 6% of sodium hypochlorite and was shaken for one minute. […] This preparation was then again shaken.

skin keratosis lesion = assay: Treatment of Keratosis I: intralesional injection; type: in vivo, human; conditions: 0.4 ml of 6% sodium hypochlorite alone into center of ~1.25 cm lesion
Description: A skin keratosis lesion measuring approximately 1.25 cm in diameter was chosen as a target for treatment. The lesion was located on the left temple of a person.
Using a 30-gauge hypodermic needle, 0.4 ml of a 6% solution of sodium hypochlorite was injected into the center of the lesion. […] See FIG. 20 for a photo of the area immediately following the injection.
Immediately after the first injection, using a 30-gauge hypodermic needle, 0.4 ml of a 3% solution of hydrogen peroxide was injected into the center of the lesion. […] See FIG. 21 for a photo of the area immediately following the injection.

[5] = tested on: coronary artery blocked with sclerotic plaque; assay: Treatment of Sclerotic Plaque II: hypochlorite alone, then peroxide added; set-up: species or system human; conditions: 2 ml of 6% sodium hypochlorite alone
Description: The following tests were performed to corroborate that the singlet oxygen produced by the hydrogen peroxide and the sodium hypochlorite had actually cleared and opened the human coronary artery blocked with the sclerotic plaque.
Like Example 3, a coronary artery blocked with sclerotic plaque, taken from a human cadaver, was prepared as a target site for treatment. The coronary artery was grayish pink in color and suspended in a formaldehyde preservative. It was surrounded with fatty tissue of an irregular shape, which measured 1.1 cm in its widest dimension. It measured approximately 0.6 cm in length and 0.5 cm in diameter. The lumen of the vessel was completed occluded with sclerotic plaque.
The human coronary artery with the plaque was first treated with 2 ml of 6% solution of sodium hypochlorite alone.
Immediately after the treatment with the sodium hypochlorite, 2 ml of 3% solution of hydrogen peroxide was added to the 2 ml of 6% solution of sodium hypochlorite containing the human coronary artery with the plaque.

[6] = gives peroxyl and/or alkoxyl radicals; Noguchi et al. 2002; cited from earlier work

CC(=O)[O-].CC(=O)[O-].CCc1c(CC)c2cc3nc(cnc4cc(OCCOCCOCCOC)c(OCCOCCOCCOC)cc4ncc4nc(cc1[n-]2)C(CCCO)=C4C)C(C)=C3CCCO.O.[Lu+3] [Antrin, motexafin lutetium]
feasibility and tolerability of photoangioplasty (atherosclerosis): feasible and well tolerated

[2H]O[2H] [D2O, deuterium oxide]
effect on rate of tumor growth (tumor growth): can depress the rate of tumor growth in mice
effect on mitosis (mitosis): anti-mitotic effect optimized between anaphase and metaphase
safety in infants [1]: safe
toxicity in mammals [1]: low toxicity
effect on lifetime of singlet oxygen [2]: can increase the lifetime of singlet oxygen

OO [hydrogen peroxide]
treatment success (influenzal pneumonia): high rate of success

O=O [singlet oxygen]
lifetime of singlet oxygen [3]: about 50 nanoseconds
molecules of singlet oxygen necessary to kill a single cell (a single cell): 10^10 molecules

OCl [sodium hypochlorite]
solubilization by hypochlorite alone [4]: minimal solubilization of the surrounding fatty tissue of the vessel
bleeding at injection site (skin keratosis lesion): minor bleeding at the lower border of the injection site
sensation on injection (skin keratosis lesion; 30-gauge needle): mild burning sensation
change of plaque with hypochlorite alone [5]: no significant changes occurred to the plaque

CC(C)(C)OO [tert-butyl hydroperoxide]
formation of singlet oxygen on reaction with hypochlorite [6]: little formation of singlet oxygen
